Assay results reported in patent US12171744B2, “Pharmaceutical combinations for the treatment of cancer” (Presage Biosciences, Inc., priority 2016, dated 2024).

Tests used:
[1] = biological target: CDK9 (Homo sapiens, UniProt P50750); assay: Kinase inhibition profiling (filter binding assay with γ-33P-ATP)
Experimental: The testing facility was Reaction Biology Corp. Kinase activity was measured using a filter binding assay with radioactive γ-33P-ATP as phosphate donor. The ATP concentration was near the Km for respective kinase. For each kinase, an IC50 value were calculated from a 10-point concentration curve of the test article and converted to Ki values.

[2] = tested on: Toledo/Dox1000 cells; assay: CIVO microinjection, CC3 expression; set-up: species or system mice; settings: mouse, in vivo
Experimental: (§1) Cell lines shown in Table 1, adherent or suspension, were treated in 6-well dishes or T10 flasks respectively, seeded at one million per ml density prior to treatment in total volumes of 3-10 ml. All agents used for in vitro cell treatments were formulated in water/DMSO to achieve required concentrations (as stated in respective figure labels/legends) with DMSO concentrations not exceeding 0.01%. Drug sources are indicated in table under ‘CIVO microinjection studies’. Cells were harvested at experimental time points: 2, 6, or 24 hours post treatment as indicated in respective figures, first by washing cells twice in ice-cold PBS in 15 ml falcon tubes, centrifugation at 1000 rpm for 5 mins followed by lysis of the respective cell pellets as described in section below. Note: Drug resistant NUDHL1 Dox 1000 nM and Toledo Dox 1000 nM cell lines were generated at Presage by culturing parental lines in media with stepwise increments in Doxorubicin concentration over several passages. These cells were used to generate xenografts when resistance to 1 uM Dox was achieved.
(§2) Mice were enrolled into CIVO drug studies when the tumor volume reached approximately 1000 mm^3. […]

[3] = tested on: NUDHL/Dox1000 cells; assay: CIVO microinjection, CC3 expression; set-up: species or system mice; settings: mouse, in vivo
Experimental: as §1, §2

[4] = tested on: RIVA (activated B-cell, or ABC) model of DLBCL; assay: Xenograft tumor growth; type: in vivo, NOD SCID mice; settings: Voruciclib 200 mpk, Venetoclax 1 mpk
Experimental: Immune deficient NOD SCID mice were implanted with the RIVA (activated B-cell, or ABC) model of DLBCL. The xenografted tumors were allowed to grow in the NOD SCID host until they reached 200 mm^3, at which point the xenografted animals were randomized into 4 study groups: 1. Vehicle control; 2. […] Venetoclax at 1 mpk; and 4. […] Venetoclax was dosed by oral gavage on days 1 and 4 of each weekly cycle. Drug effects were assessed via tumor volume measurements twice weekly by a technician blinded to the treatment of each subject in the study. N=5-6 animals per treatment arm.

[5] = tested on: SU-DHL-4 model of DLBCL; assay: Western blot of treated cells; type: cell-based
Experimental: as §1
Protein lysates were prepared by adding ice-cold 1×RIPA Buffer (from 10×, Millipore) with 1×-3× Halt protease and phosphatase inhibitor cocktail (100×, Pierce) to cell pellets, followed by pulse sonication (˜3-5 secs) three times. Lysates were cleared by centrifugation at 14K rpm for 15-20 mins and the supernatant (lysate) was collected for further analysis. To prepare lysates from cryopreserved xenograft tumor tissue, tissue was first homogenized using a hand-held tissue homogenizer (Cole Palmer) in above lysis buffer followed by pulse sonication and centrifugation as described above. Above steps were carried out under ice cold conditions. Protein samples were quantified using Bradford assay (Biorad) at 1:10 or higher dilutions using appropriate blank controls with 1×RIPA. 20-25 micrograms of protein from each sample were subject to SDS-PAGE using BOLT 4-12% Bis-Tris gels (Thermofisher) and transferred to either 0.45 or 0.2 micron pore size membranes (as applicable based on protein molecular size), and either nitrocellulose (NC) or pvdf (Thermofisher) using manufacturer's protocol, blocked for one hour in 5% milk at room temperature, probed with primary antibodies (Table 2) at 4 deg C. overnight and corresponding HRP-conjugated secondary antibodies (Jackson Immunoresearch, 1:10,000-1:20,000 dilutions) for 1 hour at room temperature. Three PBS/0.01% Tween-20 washes (5-10 mins each) were carried out after each antibody incubation. ECL chemiluminescent substrate (Pierce or GE) and autoradiographic film (Thermofisher) was used for detection of protein signals.
Cleaved PARP (cPARP) may be used as a biomarker of apoptosis. […] Cells were exposed to drug for 24 h prior to cell lysis and examination by Western Blot using antibodies specific for the cleaved form of PARP, MCL-1, C-MYC, and Beta actin (as a protein loading control) of FIG. 22A and BCL2 as an additional protein loading control in FIG. 22B.
Cleaved PARP (cPARP) may be used as a biomarker of apoptosis. To assess combination efficacy of the two agents of voruciclib and venetoclax together, low doses of each were examined as single agents or as a combination in the three models of DLBCL. Cells were exposed to drug for 24 h prior to cell lysis and examination by Western Blot using antibodies specific for the cleaved form of PARP and Beta actin (as a protein loading control).
FIG. 33 illustrates that voruciclib-induced apoptosis correlates with repression of MCL-1. Three DLBCL models were used: SUDHL4, RIvA, and U2932. Cleaved PARP (cPARP) may be used as a biomarker of apoptosis.

[6] = 0.15 uM voruciclib, 20 nM venetoclax, 24 h
[7] = increasing concentration of voruciclib, single agent

CDK9, sequence (P50750 whole entry): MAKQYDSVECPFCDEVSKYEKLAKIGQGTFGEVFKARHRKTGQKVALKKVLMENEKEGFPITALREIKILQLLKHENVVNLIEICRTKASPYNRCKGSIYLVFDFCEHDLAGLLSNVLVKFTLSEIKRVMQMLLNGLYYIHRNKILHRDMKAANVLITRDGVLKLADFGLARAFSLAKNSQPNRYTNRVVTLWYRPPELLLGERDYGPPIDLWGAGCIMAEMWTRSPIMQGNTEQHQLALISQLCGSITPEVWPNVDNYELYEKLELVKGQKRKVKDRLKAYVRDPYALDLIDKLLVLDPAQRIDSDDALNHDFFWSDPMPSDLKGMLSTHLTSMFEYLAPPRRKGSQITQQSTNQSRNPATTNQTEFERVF
CDK9, sequence (O60563 whole entry partner): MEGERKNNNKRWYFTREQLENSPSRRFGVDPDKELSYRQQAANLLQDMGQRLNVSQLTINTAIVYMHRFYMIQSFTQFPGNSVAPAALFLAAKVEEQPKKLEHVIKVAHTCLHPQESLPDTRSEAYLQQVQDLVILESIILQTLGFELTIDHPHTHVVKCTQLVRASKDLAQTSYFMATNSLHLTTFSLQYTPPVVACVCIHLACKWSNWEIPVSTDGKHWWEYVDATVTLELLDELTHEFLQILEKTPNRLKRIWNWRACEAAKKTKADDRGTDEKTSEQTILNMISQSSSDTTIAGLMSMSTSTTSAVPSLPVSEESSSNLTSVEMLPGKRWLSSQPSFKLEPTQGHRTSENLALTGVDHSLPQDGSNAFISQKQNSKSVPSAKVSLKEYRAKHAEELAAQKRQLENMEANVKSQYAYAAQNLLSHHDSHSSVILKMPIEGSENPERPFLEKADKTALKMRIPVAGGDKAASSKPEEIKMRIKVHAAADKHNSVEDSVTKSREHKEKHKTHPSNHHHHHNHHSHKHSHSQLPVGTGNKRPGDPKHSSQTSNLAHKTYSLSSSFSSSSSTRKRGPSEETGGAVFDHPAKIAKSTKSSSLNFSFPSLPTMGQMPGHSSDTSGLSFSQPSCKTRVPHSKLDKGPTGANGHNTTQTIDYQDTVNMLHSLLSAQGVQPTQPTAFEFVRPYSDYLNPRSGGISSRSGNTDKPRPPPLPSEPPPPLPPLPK

inhibition of CDK9 [1]: strongest inhibition
Structure (SMILES): CN1CC[C@@H](c2c(O)cc(O)c3c(=O)cc(-c4ccc(C(F)(F)F)cc4Cl)oc23)[C@@H]1CO (relative stereo) [voruciclib, (+)-trans-2-(2-Chloro-4-trifluoromethylphenyl)-5,7-dihydroxy-8-(2-hydroxymethyl-1-methylpyrrolidin-3-yl)-chromen-4-one]
CC3 expression [2]: slight effect
CC3 expression [3]: slight effect
tumor size (images) [4]: smaller
average tumor volume ([4]; oral gavage): decrease in tumor volume
venetoclax-induced MCL-1 ([5]; 0.15 uM voruciclib with 20 nM venetoclax, 24 h): represses
MCL-1 expression [5, 6]: maintains some efficacy for repressing
apoptosis (cleaved PARP) [5, 6]: neither compound induces apoptosis as a single agent
MCL-1 [5, 7]: suppresses
apoptosis (cPARP) [5, 7]: increases as the concentration of voruciclib increases
MCL1 ([5]; voruciclib 1.5 uM, 24 h, Western blot): suppresses
